{"source": "patent US20250109127A1", "about": "“METHODS OF USE OF PHENOXYPROPYLAMINE COMPOUNDS TO TREAT DEPRESSION” (Minerva Neurosciences, Inc., priority 2013, published 2025)", "tested_on": "HVA release in the rat prefrontal cortex", "assay": "Microdialysis: HVA release in prefrontal cortex after I.P. administration", "type": "in vivo", "conditions": "Citalopram 10 mg/kg I.P.", "procedure": "The aim of the study was to evaluate, using microdialysis, the effects of an intraperitoneal (I.P.) administration in rats of three different doses of SON-117 on dopamine and its metabolites, serotonin and its metabolite (5-HIAA), and norepinephrine levels in prefrontal cortex.\nThirty-two adult male Wistar rats were used for the whole study (4 groups of eight animals planned for the study, Table 1).\nSurgery was performed on rats weighing about 300 g at the beginning of the experiments. Rats were anaesthetized with Ketamine (50 mg/kg) & Xylazine (15 mg/kg) by intramuscular administration. The animals were placed in a stereotaxic apparatus in the flat-skull position at a constant setting of −3.3 mm between ear bars and the incisor bar. The animals were treated with a local anesthesic (xylocaine 1%, Astra Zeneca) and an analgesic (Temgesic, from Schering Plough, 0.05 mg/kg, s.c.). A rostrocaudal midline incision was made with a lancet to expose the dorsal skull surface. The “stereotaxic zero” was defined by the Bregma in accordance with Paxinos and Watson's atlas (1986). A hole was drilled in the skull with a drill and the meninges were pierced with a sterile needle to implant a CMA12 guide cannula which later received the dialysis probe.\nCoordinates used for implanting guide cannula in prefrontal cortex from Bregma were anteroposterior 3.7 mm, mediolateral 0.8 mm, and dorsoventral −2 mm (top of the probe was at −5 mm). The guide cannula was fixed to the skull with two stainless steel screws (1.88 mm outside diameter) anchored. An application of dental cement was added. A plastic collar allowed each animal to be tethered to a Swivel assembly of the CMA 120 awake animal system. Following surgery, rats were kept in individual cages and allowed to recover for a minimum of 3-5 days before the experimentation. The rats were handled and put in plastic bowl for 10 min at least every day to habituate the animals to their new environment for the dialysis. An I.P. administration with saline was also performed every day.\nDialysis probes (CMA12/3 mm, membrane, 20 kD cut-off, Carnegie Medicine, Stockholm, Sweden), were carefully washed before inserting into the guide cannula. The wash was performed with the artificial cerebrospinal fluid (aCSF) medium (NaCl 147 mM, KCl 2.7 mM, CaCl2 1.2 mM, MgCl2 0.85 mM) at room temperature. The dialysis system was then equilibrated at 20° C. at a perfusion rate of 1 μl/min with a Carnegie pump (CMA100). All catheters (FEP tubing, internal volume of 1.2 μl/10 cm, and tubing adaptors) used for microdialysis were treated in the same conditions.\nThe probes duly prepared were inserted into the guide cannula and the CMA120 Swivel assembly secured to the animal using a plastic collar. Flow through the dialysis probe with aCSF was maintained at a rate of 1 μl/min during the whole experimentation. The first four fractions (corresponding to 2 hours) were discarded to avoid the effects of parenchymal disturbance and to ensure that an approximate steady-state level was reached. Fractions were then collected over a period of 8.5 h during which time the animals remained quiet. The dialysates were automatically collected with an autosampler (microfraction collector CMA 140, Carnegie Medicin) and stored at −80° C. until analysis. […] Perfusion was then maintained for 7 hours with aCSF. The dialysates (30 μl) were collected into 300 μl vials, transferred into dry ice and then kept frozen (−80° C.) until analysis. Frozen samples were shipped to a partner for analysis. At the end of the microdialysis study, a PBS with colored ink was perfused through the probe in order to visualize the dialyzed area.\nCatecholamine assay: Concentrations of dopamine, DOPAC, HVA, 5-HIAA, 5-HT, and norepinephrin were determined for each sample by HPLC coupled with electrochemical detection.", "note": "Where “and” joins values, the source holds several entries; their conditions need not be identical. Identical values can stand only once."}
{"smiles": "CN(C)CCCC1(c2ccc(F)cc2)OCc2cc(C#N)ccc21", "note": "(stereo not shown) [Citalopram, citalopram, reference compound]", "values": [{"measurement": "HVA in dialysate, MEAN", "setting": "T0-T30 min", "result": "102.65 % of respective basal"}, {"measurement": "HVA in dialysate, MEAN", "setting": "T30-T1 h", "result": "105.17 % of respective basal"}, {"measurement": "HVA in dialysate, individual animals", "setting": "T30-T1 h", "result": "110.26 % of respective basal and 73.39 % of respective basal and 105.80 % of respective basal and 135.08 % of respective basal and 125.22 % of respective basal and 95.29 % of respective basal and 76.23 % of respective basal and 120.12 % of respective basal"}, {"measurement": "HVA in dialysate, MEAN", "setting": "T1 h 30-T2 h", "result": "106.38 % of respective basal"}, {"measurement": "HVA in dialysate, individual animals", "setting": "T1 h 30-T2 h", "result": "104.10 % of respective basal and 113.65 % of respective basal and 118.49 % of respective basal and 112.13 % of respective basal and 90.95 % of respective basal and 85.54 % of respective basal and 119.96 % of respective basal"}, {"measurement": "HVA in dialysate, MEAN", "setting": "T1 h-T1 h 30", "result": "112.92 % of respective basal"}, {"measurement": "HVA in dialysate, individual animals", "setting": "T1 h-T1 h 30", "result": "120.80 % of respective basal and 108.77 % of respective basal and 119.99 % of respective basal and 133.87 % of respective basal and 130.19 % of respective basal and 94.21 % of respective basal and 78.63 % of respective basal and 116.88 % of respective basal"}, {"measurement": "HVA in dialysate, MEAN", "setting": "T2 h 30-T3 h", "result": "99.23 % of respective basal"}, {"measurement": "HVA in dialysate, individual animals", "setting": "T2 h 30-T3 h", "result": "86.24 % of respective basal and 96.34 % of respective basal and 105.81 % of respective basal and 109.56 % of respective basal and 114.62 % of respective basal and 86.75 % of respective basal and 85.57 % of respective basal and 108.98 % of respective basal"}, {"measurement": "HVA in dialysate, MEAN", "setting": "T2 h-T2 h 30", "result": "104.43 % of respective basal"}, {"measurement": "HVA in dialysate, individual animals", "setting": "T2 h-T2 h 30", "result": "119.22 % of respective basal and 102.87 % of respective basal and 120.09 % of respective basal and 114.29 % of respective basal and 113.51 % of respective basal and 80.94 % of respective basal and 78.69 % of respective basal"}, {"measurement": "HVA in dialysate, MEAN", "setting": "T3 h 30-T4 h", "result": "106.01 % of respective basal"}, {"measurement": "HVA in dialysate, individual animals", "setting": "T3 h 30-T4 h", "result": "116.4 % of respective basal and 101.70 % of respective basal and 115.15 % of respective basal and 111.71 % of respective basal and 116.15 % of respective basal and 91.42 % of respective basal and 83.19 % of respective basal and 112.34 % of respective basal"}, {"measurement": "HVA in dialysate, MEAN", "setting": "T3 h-T3 h 30", "result": "99.27 % of respective basal"}, {"measurement": "HVA in dialysate, individual animals", "setting": "T3 h-T3 h 30", "result": "120.94 % of respective basal and 53.98 % of respective basal and 122.37 % of respective basal and 100.07 % of respective basal and 116.40 % of respective basal and 87.92 % of respective basal and 83.63 % of respective basal and 108.86 % of respective basal"}, {"measurement": "HVA in dialysate, MEAN", "setting": "T4 h 30-T5 h", "result": "104.36 % of respective basal"}, {"measurement": "HVA in dialysate, individual animals", "setting": "T4 h 30-T5 h", "result": "122.34 % of respective basal and 105.68 % of respective basal and 105.06 % of respective basal and 88.58 % of respective basal and 115.04 % of respective basal and 93.59 % of respective basal and 99.55 % of respective basal and 105.03 % of respective basal"}, {"measurement": "HVA in dialysate, MEAN", "setting": "T4 h-T4 h 30", "result": "102.95 % of respective basal"}, {"measurement": "HVA in dialysate, individual animals", "setting": "T4 h-T4 h 30", "result": "114.29 % of respective basal and 100.59 % of respective basal and 112.89 % of respective basal and 101.71 % of respective basal and 116.86 % of respective basal and 75.84 % of respective basal and 89.63 % of respective basal and 111.78 % of respective basal"}, {"measurement": "HVA in dialysate, MEAN", "setting": "T5 h 30-T6 h", "result": "101.24 % of respective basal"}, {"measurement": "HVA in dialysate, individual animals", "setting": "T5 h 30-T6 h", "result": "117.67 % of respective basal and 97.79 % of respective basal and 98.75 % of respective basal and 98.06 % of respective basal and 103.48 % of respective basal and 81.28 % of respective basal"}, {"measurement": "HVA in dialysate, MEAN", "setting": "T5 h-T5 h 30", "result": "90.91 % of respective basal"}, {"measurement": "HVA in dialysate, individual animals", "setting": "T5 h-T5 h 30", "result": "56.25 % of respective basal and 103.6 % of respective basal and 88.87 % of respective basal and 96.67 % of respective basal and 94.02 % of respective basal and 92.05 % of respective basal and 104.93 % of respective basal"}, {"measurement": "HVA in dialysate, MEAN", "setting": "T6 h 30-T7 h", "result": "96.98 % of respective basal"}, {"measurement": "HVA in dialysate, individual animals", "setting": "T6 h 30-T7 h", "result": "91.33 % of respective basal and 101.80 % of respective basal and 95.80 % of respective basal and 96.50 % of respective basal and 91.69 % of respective basal and 93.72 % of respective basal and 98.54 % of respective basal"}, {"measurement": "HVA in dialysate, MEAN", "setting": "T6 h-T6 h 30", "result": "98.82 % of respective basal"}, {"measurement": "HVA in dialysate, individual animals", "setting": "T6 h-T6 h 30", "result": "123.42 % of respective basal and 100.15 % of respective basal and 101.33 % of respective basal and 91.37 % of respective basal and 91.61 % of respective basal and 99.80 % of respective basal and 86.50 % of respective basal and 96.35 % of respective basal"}, {"measurement": "HVA in dialysate, MEAN", "setting": "T-30 min-T0 (pre-dose)", "result": "100.15 % of respective basal"}, {"measurement": "HVA in dialysate, MEAN", "setting": "T-1 h 30-T-1 h (pre-dose)", "result": "103.32 % of respective basal"}, {"measurement": "HVA in dialysate, individual animals", "setting": "T-1 h 30-T-1 h (pre-dose)", "result": "98.60 % of respective basal and 95.37 % of respective basal"}, {"measurement": "HVA in dialysate, MEAN", "setting": "T-1 h-T-30 min (pre-dose)", "result": "97.36 % of respective basal"}]}
